Results published in US20260167622A1, “PAN-KRAS DEGRADING AGENT, AND PREPARATION METHOD THEREFOR AND USE THEREOF” (LEADINGTAC PHARMACEUTICAL (SHAOXING) CO., LTD., priority 2022, published 2026).

Experiments:
Format in all cases: cell-based
[1] = system: KRAS G12C mutant human non-small cell lung cancer cell NCI-H358; experiment: 3D cell proliferation inhibition assay, NCI-H358; settings: NCI-H358, 168 h, 3D culture, 7 days, CTG
In short: (§1)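 Cells seeded in low-adsorption plates at 5×10^2 cells/well (MKN1 1×10^3) with compounds at final 10000–0.026 nM, 0.2% DMSO, 3D culture 7 days at 37 °C. Viability by CellTiter-Glo luminescence; inhibition normalised to DMSO and medium-only controls, IC50 from nonlinear log-concentration fit.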

[2] = system: KRAS G12D mutant human gastric cancer cell AGS; experiment: 3D cell proliferation inhibition assay, AGS; settings: 168 h, 3D culture, 7 days, CTG
Source text: (§2) Test Example 6: 3D Cell Proliferation Inhibition Assay
(§3) The inhibitory effects of the compounds on 3D cell proliferation were investigated on KRAS G12C mutant human non-small cell lung cancer cell NCI-H358, KRAS G12D mutant human lung cancer cell A427, KRAS G12D mutant human gastric cancer cell AGS, KRAS G12D mutant human metastatic pancreatic cancer cell AsPc-1, KRAS G12V mutant human lung squamous carcinoma cell SW900, KRAS G12V mutant human colorectal cancer cell SW620, KRAS G13D mutant human colorectal cancer epithelial cell DLD-1, and KRAS WT human gastric cancer cell MKN1. The specific procedures were as follows:
(§4) 10 μL of each compound solution diluted in a gradient was added to corresponding wells of a 96-well low-adsorption microplate (PerkinElmer), so that the final concentrations of the test compounds in the reaction system were in a range of 10000-0.026 nM. The final concentration of DMSO was 0.2%. Then 90 µL of cells were correspondingly seeded into each well to achieve a cell density of 5×10^2 cells/well (the cell density of SW900 was 5×10^3 cells/well, and the cell density of MKN1 was 1×10^3 cells/well). In addition to test wells for the test compounds, both a DMSO control well and a medium control well were set, with the DMSO control well containing DMSO and cells and the medium well containing only a medium. After the sample loading, the 96-well low-adsorption microplate was incubated in an incubator at 37° C. with […] for 7 days. After 7 days, the microplate was taken out, and 100 μL of CTG reagent (Promega) was added to each well. The plate was incubated at room temperature for 60 m and read on a microplate reader EnVision by the chemiluminescence program. The inhibition rates of the compounds at each concentration were calculated using the formula for the percentage inhibition of cell proliferation: inhibition rate 00=(mean value of DMSO control group−single concentration reading value of compound)/(mean value of DMSO control group−mean value of medium control group)×100. Then non-linear curve fillings for logarithmic concentration-inhibition rate were performed by GraphPad Prism 8, and the IC50 values of the compounds were obtained (Table 6).

[3] = system: KRAS G13D mutant human colorectal cancer epithelial cell DLD-1; experiment: 3D cell proliferation inhibition assay, DLD-1; settings: DLD-1, 168 h, 3D culture, 7 days, CTG
In short: as §1

[4] = system: KRAS G12D mutant human metastatic pancreatic cancer cell AsPc-1; experiment: 3D cell proliferation inhibition assay, AsPc-1; settings: ASPC1, 168 h, 3D culture, 7 days, CTG
In short: as §1

[5] = system: KRAS G12D mutant human lung cancer cell A427; experiment: 3D cell proliferation inhibition assay, A427; settings: A-427, 168 h, 3D culture, 7 days, CTG
Source text: as §2, §3, §4

[6] = target: T1, KRAS G12V protein in SW900 cells (Homo sapiens, UniProt P01116, G12V); experiment: KRAS degradation assay (Western Blot) in SW900 cells; settings: 24 h
T1 construct: endogenous in cells; host or cells: SW900
In short: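 Cells seeded at 5×10^5 cells/well, incubated overnight, then treated 24 h at 37 °C with compound (final 0.03–3000 nM, 0.25% DMSO). KRAS in lysates measured by Western blot with β-actin normalisation; degradation versus vehicle control fitted to give DC50 and Dmax.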

[7] = system: KRAS WT human gastric cancer cell MKN1; experiment: 3D cell proliferation inhibition assay, MKN1; settings: MKN-1, 168 h, 3D culture, 7 days, CTG
In short: as §1

[8] = system: KRAS G12V mutant human lung squamous carcinoma cell SW900; experiment: 3D cell proliferation inhibition assay, SW900; settings: SW900, 168 h, 3D culture, 7 days, CTG
[9] = system: KRAS G12V mutant human colorectal cancer cell SW620; experiment: 3D cell proliferation inhibition assay, SW620; settings: SW-620, 168 h, 3D culture, 7 days, CTG
In short: as §1

T1 sequence (P01116 1-188 isoform P01116-2 G12V): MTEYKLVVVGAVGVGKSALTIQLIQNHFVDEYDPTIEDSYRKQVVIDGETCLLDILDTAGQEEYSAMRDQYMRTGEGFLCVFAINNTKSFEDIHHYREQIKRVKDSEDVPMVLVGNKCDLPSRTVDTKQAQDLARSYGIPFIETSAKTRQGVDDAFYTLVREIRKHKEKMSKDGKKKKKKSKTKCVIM

IC50 [1] [nM]	IC50 [2] [nM]	IC50 [3] [nM]	IC50 [4] [nM]	IC50 [5] [nM]	DC50 [6] [nM]	Dmax [6] [%]	IC50 [7] [nM]	IC50 [8] [nM]	IC50 [9] [nM]	Compound
≤ 50	≤ 50	50 to 100	50 to 100	50 to 100	≤ 50	80 to 100	≤ 50	≤ 50		C#Cc1c(F)ccc2cc(O)cc(-c3ncc4c(N5CCC[C@@](C)(O)C5)nc(OCC5(CN6CCC(COCCC7CCN(C(=O)c8ccc(Cl)c(N9CCC(=O)NC9=O)c8)CC7)CC6)CC5)nc4c3F)c12 [Example 10, (R)-1-(2-chloro-5-(4-(2-((1-((1-(((7-(8-ethynyl-7-fluoro-3-hydroxynaphthalen-1-yl)-8-fluoro-4-(3-hydroxy-3-methylpiperidin-1-yl)pyrido[4,3-d]pyrimidin-2-yl)oxy)methyl)cyclopropyl)methyl)piperidin-4-yl)methoxy)ethyl)piperidine-1-carbonyl)phenyl)dihydropyrimidine-2,4(1H,3H)-dione]
≤ 50	≤ 50	≤ 50	50 to 100	≤ 50	≤ 50	80 to 100	≤ 50	≤ 50		C#Cc1c(F)ccc2cc(O)cc(-c3ncc4c(N5CCC[C@@](C)(O)C5)nc(OCC5(CN6CCN(CCC7CCC8(CC7)CCN(C(=O)c7ccc(Cl)c(N9CCC(=O)NC9=O)c7)CC8)CC6)CC5)nc4c3F)c12 [Example 9, (R)-1-(2-chloro-5-(9-(2-(4-((1-(((7-(8-ethynyl-7-fluoro-3-hydroxynaphthalen-1-yl)-8-fluoro-4-(3-hydroxy-3-methylpiperidin-1-yl)pyrido[4,3-d]pyrimidin-2-yl)oxy)methyl)cyclopropyl)methyl)piperazin-1-yl)ethyl)-3-azaspiro[5.5]undecane-3-carbonyl)phenyl)dihydropyrimidine-2,4(1H,3H)-dione]
100 to 500	≤ 50	≤ 50	≤ 50	50 to 100	≤ 50	80 to 100	50 to 100	≤ 50		C#Cc1c(F)ccc2cc(O)cc(-c3ncc4c(N5CCC[C@@H](O)C5)nc(OCC5(CN6CCN(CC7CCC8(CC7)CCN(C(=O)c7ccc(C)c(N9CCC(=O)NC9=O)c7)CC8)CC6)CC5)nc4c3F)c12 [Example 45, (R)-1-(5-(9-((4-((1-(((7-(8-ethynyl-7-fluoro-3-hydroxynaphthalen-1-yl)-8-fluoro-4-(3-hydroxypiperidin-1-yl)pyrido[4,3-d]pyrimidin-2-yl)oxy)methyl)cyclopropyl)methyl)piperazin-1-yl)methyl)-3-azaspiro[5.5]undecane-3-carbonyl)-2-methylphenyl)dihydropyrimidine-2,4(1H,3H)-dione]
50 to 100	≤ 50	≤ 50	≤ 50	50 to 100	≤ 50	80 to 100	≤ 50	≤ 50	3.36	C#Cc1c(F)ccc2cc(O)cc(-c3ncc4c(N5CCCOCC5)nc(OCC5(CN6CCN(CC7CCC8(CC7)CCN(C(=O)c7ccc(C)c(N9CCC(=O)NC9=O)c7)CC8)CC6)CC5)nc4c3F)c12 [Example 36, 1-(5-(9-((4-((1-(((7-(8-ethynyl-7-fluoro-3-hydroxynaphthalen-1-yl)-8-fluoro-4-(1,4-oxazepan-4-yl)pyrido[4,3-d]pyrimidin-2-yl)oxy)methyl)cyclopropyl)methyl)piperazin-1-yl)methyl)-3-azaspiro[5.5]undecane-3-carbonyl)-2-methylphenyl)dihydropyrimidine-2,4(1H,3H)-dione]
≤ 50	≤ 50	≤ 50	≤ 50	100 to 500	≤ 50	80 to 100	≤ 50	≤ 50	0.82	CCc1c(F)ccc2cc(O)cc(-c3ncc4c(N5CCC[C@@](C)(O)C5)nc(OCC5(CN6CCN(CC7CCC8(CC7)CCN(C(=O)c7ccc(C)c(N9CCC(=O)NC9=O)c7)CC8)CC6)CC5)nc4c3F)c12 [Example 19, (R)-1-(5-(9-((4-((1-(((7-(8-ethyl-7-fluoro-3-hydroxynaphthalen-1-yl)-8-fluoro-4-(3-hydroxy-3-methylpiperidin-1-yl)pyrido[4,3-d]pyrimidin-2-yl)oxy)methyl)cyclopropyl)methyl)piperazin-1-yl)methyl)-3-azaspiro[5.5]undecane-3-carbonyl)-2-methylphenyl)dihydropyrimidine-2,4(1H,3H)-dione]
100 to 500	≤ 50	≤ 50	≤ 50	100 to 500	≤ 50	80 to 100	≤ 50	≤ 50	2.45	CCc1cccc2cc(O)cc(-c3ncc4c(N5CCC[C@@](C)(O)C5)nc(OCC5(CN6CCN(CC7CCC8(CC7)CCN(C(=O)c7ccc(OC)c(N9CCC(=O)NC9=O)c7)CC8)CC6)CC5)nc4c3F)c12 [Example 25, (R)-1-(5-(9-((4-((1-(((7-(8-ethyl-3-hydroxynaphthalen-1-yl)-8-fluoro-4-(3-hydroxy-3-methylpiperidin-1-yl)pyrido[4,3-d]pyrimidin-2-yl)oxy)methyl)cyclopropyl)methyl)piperazin-1-yl)methyl)-3-azaspiro[5.5]undecane-3-carbonyl)-2-methoxyphenyl)dihydropyrimidine-2,4(1H,3H)-dione]
100 to 500	≤ 50	≤ 50	≤ 50	100 to 500	≤ 50	80 to 100	≤ 50	≤ 50	2.11	CCc1cccc2cc(O)cc(-c3ncc4c(N5CCC[C@@](C)(O)C5)nc(OCC5(CN6CCN(CC7CCC8(CC7)CCN(C(=O)c7ccc(C)c(N9CCC(=O)NC9=O)c7)CC8)CC6)CC5)nc4c3F)c12 [Example 26, (R)-1-(5-(9-((4-((1-(((7-(8-ethyl-3-hydroxynaphthalen-1-yl)-8-fluoro-4-(3-hydroxy-3-methylpiperidin-1-yl)pyrido[4,3-d]pyrimidin-2-yl)oxy)methyl)cyclopropyl)methyl)piperazin-1-yl)methyl)-3-azaspiro[5.5]undecane-3-carbonyl)-2-methylphenyl)dihydropyrimidine-2,4(1H,3H)-dione]
≤ 50	≤ 50	≤ 50	≤ 50	100 to 500	≤ 50	80 to 100	≤ 50	≤ 50		CCc1cccc2cc(O)cc(-c3ncc4c(N5CCC[C@@](C)(O)C5)nc(OCC5(CN6CCN(CC7CCC8(CC7)CCN(C(=O)c7ccc(F)c(N9CCC(=O)NC9=O)c7)CC8)CC6)CC5)nc4c3F)c12 [Example 28, (R)-1-(5-(9-((4-((1-(((7-(8-ethyl-3-hydroxynaphthalen-1-yl)-8-fluoro-4-(3-hydroxy-3-methylpiperidin-1-yl)pyrido[4,3-d]pyrimidin-2-yl)oxy)methyl)cyclopropyl)methyl)piperazin-1-yl)methyl)-3-azaspiro[5.5]undecane-3-carbonyl)-2-fluorophenyl)dihydropyrimidine-2,4(1H,3H)-dione]
